In US9006394B2, “Peptide-presenting surfaces for long-term culture of pluripotent cells” (Wisconsin Alumni Research Foundation, priority 2008, dated 2015):
Ends that are not written are not given here.

Tested on: hESCs
Assay: Long-term (3 months) culture on defined surfaces, markers of pluripotency
Assay type: cell-based, human
Conditions: 3 months of continuous passaging
From the text: Preferably, one spots ATs onto an inert background to form self-assembling monolayers (SAMs). See, e.g., Derda et al., supra; Derda R, et al., “Solid-phase synthesis of alkanethiols for the preparation of self-assembled monolayers,” Langmuir 23:11164-11167 (2007); and Houseman B & Mrksich M, “Efficient solid-phase synthesis of peptide-substituted alkanethiols for the preparation of substrates that support the adhesion of cells,” J. Org. Chem. 63:7552-7555 (1998), each of which is incorporated herein by reference as if set forth in its entirety. For example, a background can be formed of perfluoro-AT, which can be both cytophobic (i.e., repel cells) and solvophobic (i.e., repel solvents). First, a gold-coated surface can be coated with a perfluoro-AT monolayer, either leaving areas (i.e., holes) in the monolayer for the elements of an array or creating areas in the monolayer for the elements of the array in a subsequent step. Then, ATs coupled to a peptide, such as an GBP as described herein, can be attached to the substrate in the holes to complete the monolayer and to present ligands for pluripotent cell attachment to the surface. Surface density of the GBPs can be controlled using mixed SAMs of peptide-ATs and non-adhesive glucamine-ATs. […]
Flow cytometry data was obtained using a FACSCalibur™ (BD Biosciences) and analyzed using FlowJo Software (Tree Star, Inc.; Ashland, Oreg.). […]

Sequence: GKKQRFRHRNRKG (not fully specified (C-terminus); listed as Homo sapiens)
- markers of pluripotency after 3 months of culture: maintained high levels of markers of pluripotency
- markers of pluripotency after 3 months of culture (listed as SEQ ID NO:1): maintained at high levels
